Experimental data: article PMC10850190, “Bifidobacterial GH146 β-L-arabinofuranosidase for the removal of β1,3-L-arabinofuranosides on plant glycans” (Applied Microbiology and Biotechnology, 2024)

Target: T1, Bll1HypBA1 (Bifidobacterium longum, UniProt E8MGH8)
T1 construct: gene hypBA1; GH127 enzyme prepared as in earlier reports; homodimer
T1 sequence (E8MGH8 1-658): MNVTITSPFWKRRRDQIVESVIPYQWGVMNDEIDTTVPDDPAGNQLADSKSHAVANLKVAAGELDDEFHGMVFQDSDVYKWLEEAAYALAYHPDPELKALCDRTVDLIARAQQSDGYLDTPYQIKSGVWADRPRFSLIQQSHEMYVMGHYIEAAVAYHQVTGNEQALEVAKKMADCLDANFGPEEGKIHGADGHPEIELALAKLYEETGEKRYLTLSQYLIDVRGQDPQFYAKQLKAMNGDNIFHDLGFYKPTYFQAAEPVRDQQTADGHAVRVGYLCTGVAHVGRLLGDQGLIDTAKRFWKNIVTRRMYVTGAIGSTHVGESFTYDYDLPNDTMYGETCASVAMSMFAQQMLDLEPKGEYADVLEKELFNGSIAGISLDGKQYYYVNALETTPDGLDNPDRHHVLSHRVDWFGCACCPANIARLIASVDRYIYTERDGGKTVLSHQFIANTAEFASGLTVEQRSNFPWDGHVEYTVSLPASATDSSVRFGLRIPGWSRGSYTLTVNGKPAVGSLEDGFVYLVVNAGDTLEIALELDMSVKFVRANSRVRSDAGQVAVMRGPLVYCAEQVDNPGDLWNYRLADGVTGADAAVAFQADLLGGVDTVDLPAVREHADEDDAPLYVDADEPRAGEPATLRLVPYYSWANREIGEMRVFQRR
Assay: TLC, released L-arabinose
Format: biochemical
Settings: 50 mM sodium acetate pH 5.5; 37 °C; 16 h

Row | Compound | TLC, released L-arabinose
1 | CO[C@@H]1O[C@@H](CO)[C@H](O)[C@H]1O[C@H]1O[C@@H](CO)[C@H](O)[C@H]1O [β2, Araf-β1,2-Araf-α-OMe] | Conversely, Bll1HypBA1 completely hydrolyzed these substrates
2 | CO[C@@H]1O[C@@H](CO[C@H]2O[C@@H](CO)[C@H](O)[C@H]2O)[C@H](O)[C@H]1O [β5, Araf-β1,5-Araf-α-OMe] | Conversely, Bll1HypBA1 completely hydrolyzed these substrates
